Measurements as given in the supplement of paper PMC10307832.

Columns and labels:
Assay in all cases: relative viability (nuclei count vs DMSO), 5 days (fraction); higher = more cells survive
XMD14-99 + Luminespib = compound: CN1CCN(CC1)C2=CC(=C(C=C2)NC3=NC(=C(S3)C(=O)C4=C(C=CC=C4Cl)Cl)N)OC [XMD14-99] + CCNC(=O)c1noc(-c2cc(C(C)C)c(O)cc2O)c1-c1ccc(CN2CCOCC2)cc1 [Luminespib] (partner 0.01 µM)
How it was run: (§1)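 Values are medians from duplicate plates. Each reflects relative viability, defined as the nuclei count of treated wells over that of vehicle wells. Lung cancer cell lines in 1536-well plates were pin-tool dosed one day after seeding with one drug alone or with a fixed anchor-drug dose plus five library-drug doses (not always all listed) in √10 steps, then fixed, stained and imaged at 4× after 5 days.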

AZD1208 + Palbociclib = compound: N[C@@H]1CCCN(c2c(/C=C3\SC(=O)NC3=O)cccc2-c2ccccc2)C1 [AZD1208] + CC(=O)c1c(C)c2cnc(Nc3ccc(N4CCNCC4)cn3)nc2n(C2CCCC2)c1=O [Palbociclib] (partner 0.5 µM)
How it was run: as §1

AZD1208 + Vorinostat = compound: N[C@@H]1CCCN(c2c(/C=C3\SC(=O)NC3=O)cccc2-c2ccccc2)C1 [AZD1208] + O=C(CCCCCCC(=O)Nc1ccccc1)NO [Vorinostat] (partner 1 µM)
How it was run: as §1

AZD1208 + OSI-027 = compound: N[C@@H]1CCCN(c2c(/C=C3\SC(=O)NC3=O)cccc2-c2ccccc2)C1 [AZD1208] + COc1cccc2cc(-c3nc([C@H]4CC[C@H](C(=O)O)CC4)n4ncnc(N)c34)[nH]c12 [OSI-027] (partner 0.5 µM)
How it was run: as §1

UMC-11
relative viability (XMD14-99 + Luminespib; first compound 0.08 µM): 0.98
relative viability (XMD14-99 + Luminespib; first compound 0.8 µM): 1.05
relative viability (XMD14-99 + Luminespib; first compound 2.53 µM): 0.98
relative viability (XMD14-99 + Luminespib; first compound 8 µM): 0.828
relative viability (AZD1208 + Palbociclib; first compound 0.08 µM): 0.293
relative viability (AZD1208 + Palbociclib; first compound 0.253 µM): 0.281
relative viability (AZD1208 + Palbociclib; first compound 0.8 µM): 0.291
relative viability (AZD1208 + Palbociclib; first compound 2.53 µM): 0.308
relative viability (AZD1208 + Palbociclib; first compound 8 µM): 0.262
relative viability (AZD1208 + Vorinostat; first compound 0.08 µM): 0.362
relative viability (AZD1208 + Vorinostat; first compound 0.253 µM): 0.354
relative viability (AZD1208 + Vorinostat; first compound 0.8 µM): 0.3
relative viability (AZD1208 + Vorinostat; first compound 2.53 µM): 0.294
relative viability (AZD1208 + Vorinostat; first compound 8 µM): 0.211
relative viability (AZD1208 + OSI-027; first compound 0.08 µM): 0.333
relative viability (AZD1208 + OSI-027; first compound 0.253 µM): 0.321
relative viability (AZD1208 + OSI-027; first compound 0.8 µM): 0.321
relative viability (AZD1208 + OSI-027; first compound 2.53 µM): 0.329
relative viability (AZD1208 + OSI-027; first compound 8 µM): 0.294
